# According to patent US12319752B2, “Heparin-binding cationic peptide self-assembling peptide amphiphiles useful against drug-resistant bacteria” (priority 2016, dated 2025):
# Residues, ends and D or L forms follow the SMILES beside them. *: point of attachment. Palmitoyl = CCCCCCCCCCCCCCCC(=O)*
# Test system: MRSA
# Test: Bacterial growth inhibition (growth curves, OD562, 20 h)
# Assay type: cell-based, methicillin-resistant S. aureus (MRSA, ATCC #43300)
# Experimental: Gram-positive (S. aureus and MRSA) and Gram-negative (E. coli and MDR E. coli) bacteria were incubated with peptide concentrations ranging from 20 to 100 μM, and time-lapsed bacterial growth was monitored for 20 hours by determining the optical density at 562 nm (O.D. 562 nm). […] At the highest concentration tested (100 μM), the time to exponential growth phase of S. aurues was delayed by about 18 h (FIG. 5B), and was prolonged by almost 13 h for MRSA (FIG. 5A), while bacteria incubated without ACA-PA entered the exponential growth phase within 4 h. Gram-positive bacteria were also susceptible to the ACA-PA even below their CMC.
# The MIC values of ACA-PA towards drug-resistant bacteria were determined after 24 h of incubation (Table 2).
# This assay was performed to investigate the inhibitory effects of each peptide against Gram-positive Staphylococcus aureus (S. aureus, ATCC #25923) and methicillin-resistant S. aureus (MRSA, ATCC #43300), as well as Gram-negative Escherichia coli (E. coli, ATCC #25922), and multidrug-resistant E. coli (MDR E. coli, ATCC #BAA-2471). In all experiments, solutions of each peptide at the concentrations from 20 μM to 100 μM in 3% Tryptic Soy Broth (TSB) media were freshly prepared. A single colony of bacteria was isolated from a stock agar plate and cultured overnight in 4 mL of 3% TSB on a shaking incubator set at 200 rpm and 37° C. The bacteria culture was adjusted to an optical density at 562 nm (OD562) to about 0.52 (10^9 cells/mL), and the resulting bacteria suspension was subsequently diluted to about 10^6 colony forming units (CFU) per mL in each sample. The control samples were bacteria incubated in TSB media without peptides. The bacteria were incubated inside a spectrophotometer (Spectra-Max Paradigm, Molecular Devices, Sunnyvale, CA) at 37° C. under static conditions for 20 h, and the bacterial growth curves were measured in terms of turbidity at OD562 every 2 minutes. The normalized OD562 values of samples were calculated by subtracting the […].
structure (smiles),measurement,setting,value
"CCCCCCCCCCCCCCCC(=O)N[C@H](C(=O)N[C@H](C(=O)N[C@H](C(=O)N[C@H](C(=O)N[C@@H](CCCCN)C(=O)N[C@@H](CCCCN)C(=O)N[C@@H](CCCCN)C(=O)N[C@@H](CCCCN)C(=O)NCC(=O)N[C@@H](C)C(=O)N[C@@H](CCCCN)C(=O)N[C@@H](CCCCN)C(=O)N[C@@H](C)C(=O)N[C@@H](CCCNC(=N)N)C(=O)N[C@@H](C)C(=O)N[C@@H](C)C(=O)N[C@@H](CCCCN)C(=O)N[C@@H](CCCCN)C(=O)N[C@@H](C)C(=O)N[C@@H](CCCNC(=N)N)C(=O)N[C@@H](C)C(=O)O)C(C)C)C(C)C)C(C)C)C(C)C [ACA-PA, C16-V4K4G(AKKARA)2 (SEQ ID NO: 7)] (Palmitoyl-VVVVKKKKGAKKARAAKKARA-OH; N-terminus and C-terminus assumed)",prolongation of time to exponential growth phase,100 μM,~13 h
same,bacterial growth inhibition,"20 to 100 μM, 20 h",remarkably inhibited the proliferation
same,susceptibility of bacterial growth,below the CMC,susceptible
